Target: T1, human FXR (cotransfected with RXR) (Homo sapiens, UniProt Q96RI1)
T1 sequence (Q96RI1 1-486): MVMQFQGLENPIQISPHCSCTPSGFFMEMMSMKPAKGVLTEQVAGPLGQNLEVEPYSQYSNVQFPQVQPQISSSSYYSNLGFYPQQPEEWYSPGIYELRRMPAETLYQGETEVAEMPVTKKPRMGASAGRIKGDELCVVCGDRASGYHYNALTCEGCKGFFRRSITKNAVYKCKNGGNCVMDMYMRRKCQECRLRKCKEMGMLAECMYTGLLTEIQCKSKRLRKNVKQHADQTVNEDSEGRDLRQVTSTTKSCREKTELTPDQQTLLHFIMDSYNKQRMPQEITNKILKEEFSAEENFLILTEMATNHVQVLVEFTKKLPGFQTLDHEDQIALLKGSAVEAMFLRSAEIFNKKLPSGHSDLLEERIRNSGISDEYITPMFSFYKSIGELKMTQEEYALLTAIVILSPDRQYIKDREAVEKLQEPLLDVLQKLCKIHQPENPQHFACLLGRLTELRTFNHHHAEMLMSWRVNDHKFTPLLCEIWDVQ
T1 sequence (P19793 1-462 partner): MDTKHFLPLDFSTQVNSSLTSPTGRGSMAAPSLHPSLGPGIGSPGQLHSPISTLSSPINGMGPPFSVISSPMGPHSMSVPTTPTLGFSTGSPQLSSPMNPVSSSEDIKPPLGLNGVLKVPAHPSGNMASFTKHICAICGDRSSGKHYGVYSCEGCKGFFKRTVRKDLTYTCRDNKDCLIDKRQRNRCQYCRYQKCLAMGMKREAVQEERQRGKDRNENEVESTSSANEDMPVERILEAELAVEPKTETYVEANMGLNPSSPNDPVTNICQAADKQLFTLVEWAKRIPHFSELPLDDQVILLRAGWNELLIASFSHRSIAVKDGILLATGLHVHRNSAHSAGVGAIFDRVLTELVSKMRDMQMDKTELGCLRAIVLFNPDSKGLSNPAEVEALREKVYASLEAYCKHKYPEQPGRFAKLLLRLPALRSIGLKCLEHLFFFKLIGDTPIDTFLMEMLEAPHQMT
Experiment: FXRE-luciferase reporter in HEK293
Format: cell-based

IC50: 13.8 µM
SMILES: C[C@H](CCC(=O)O)[C@H]1CC[C@H]2[C@@H]3C(=O)C[C@@H]4C[C@H](O)CC[C@]4(C)[C@H]3C[C@H](O)[C@]12C [7-oxo-DCA]
